In paper PMC8557901 (Microbiology Spectrum, 2021):

Legend:
[1] = system: P. falciparum mature gametocytes (stage V); assay: Exflagellation-blocking assay; type: cell-based, Plasmodium falciparum; settings: 10 μM, 24 h preincubation of stage V gametocytes
Procedure: Exflagellation-blocking assays were performed according to published protocols ([48], [49]). Assays were performed using gametocyte cultures providing high-enough numbers of exflagellation centers for meaningful measurement (>30 centers of exflagellation in 50 microscope fields at 400× magnification). […] The 6-well plate was incubated at 37°C. After treatment with M1 during 2 h or 24 h, exflagellation was induced by decreasing the temperature to 25°C and replacing culture medium with AB serum. The numbers of exflagellation centers were recorded between 10 and 30 min after induction and compared to the numbers in the control (DMSO treatment). Activity was expressed as the percentage of exflagellation inhibition compared to the control.

[2] = system: P. cynomolgi liver-stage parasites in simian primary hepatocytes; assay: In vitro liver-stage development, P. cynomolgi in simian primary hepatocytes; type: cell-based, Plasmodium cynomolgi
Description: Primary human hepatocytes were isolated from liver segments obtained from adult patients undergoing partial hepatectomy (Service de Chirurgie Digestive, Hépato-Bilio Pancréatique, Hôpital Pitié Salpêtrière, Paris, France). Primary simian hepatocytes were isolated from liver segments collected from healthy Macaca fascicularis monkeys from CEA, Fontenay aux Roses, France. All hepatocytes were obtained using collagenase perfusion as previously described ([40]). […] Primary murine hepatocytes were isolated from liver segments collected from BALB/c mice. Human and murine hepatocytes were used directly after their isolation. Cells were seeded in 96-well plates (Falcon; Becton Dickinson Labware Europe, France) coated with collagen I (BD Bioscience, USA) at a density of 80,000 cells per well. […] For human hepatocytes, the complete medium was supplemented with 2% dimethyl sulfoxide (DMSO; Sigma-Aldrich, USA) before infection to preserve their differentiation.
On the day of infection, 3 · 10^4 sporozoites of P. falciparum, P. yoelii, and P. cynomolgi were added to their respective host cell cultures (human, murine, and simian). The infected culture plates were centrifuged for 10 min at 900 × g, allowing fast parasite sedimentation, and further incubated with serial dilutions of M1. Culture medium containing the appropriate drug concentration was refreshed daily, and cells were fixed at 48 h postinfection (p.i.) for infections with P. yoelii, 6 days p.i. for P. falciparum, or 8 days p.i. for P. cynomolgi. For the in vitro sporozoite invasion experiments, P. falciparum sporozoites were preincubated with 1, 10, and 100 μM M1 for 1 h at room temperature before hepatocyte infections. Three hours later, after sporozoite penetration into hepatocytes, cultures were washed and then further incubated with or without the presence of the drug during 6 days. DMSO was used as a negative control.
The number, size, and shape of the parasites were determined using a CellInsight high-content screening platform equipped with Studio HCS software (ThermoFisher Scientific). […] Host cell and parasite nuclei were labeled with DAPI (4′,6-diamidino-2-phenylindole). […] The custom script used for counting and measuring parasites first required identification of the objects based on a fluorescence intensity threshold. The object identity was then further validated based on size and morphological (shape) criteria. The presence of DAPI-associated fluorescence in the selected objects allowed their final selection and the rejection of false positives. […] The parasitic size reduction was calculated on the average object area using the total surface area of each selected object (μm^2).

[3] = system: P. falciparum F32-TEM (artemisinin-sensitive); assay: Standard in vitro chemosensitivity assay (hypoxanthine uptake), F32-TEM; type: cell-based; settings: Plasmodium falciparum, F32, 48 h, read-out: Mean EC50 ± SD
Procedure: The Plasmodium falciparum artemisinin-resistant strain F32-ART5 and its twin artemisinin-sensitive line F32-TEM ([30], [31]) were cultivated at 37°C with 5% CO2 in human red blood cells (EFS [French Blood Bank]) diluted to 2% hematocrit in RPMI 1640 medium supplemented with 5% human serum (EFS) as previously reported ([47]).
In vitro susceptibility of P. falciparum parasites was determined by using the standard hypoxanthine uptake inhibition assay as described previously ([51]) with some modifications ([52]). After D-sorbitol treatment, parasites synchronized at the ring stage were exposed for 48 h, with [^3H]hypoxanthine (Perkin Elmer, France), to a range of concentrations of the different tested compounds. […] Each result represents 3 independent experiments.

hERG channel = target: T1, hERG channel (Homo sapiens, UniProt Q12809); assay: Predictor hERG fluorescence polarization binding assay; settings: 0.01 nM to 100 µM
T1 construct: purchased ThermoFischer PV5665
Procedure: hERG channel binding was determined with the PredictorTM hERG Fluorescence Polarization Assay (PV5665 ThermoFischer). Briefly, reagents were thawed, and were mixed by pipetting 20x with PredictorTM hERG membranes. The fluorescent tracer was diluted at 4 nM in the PredictorTM hERG buffer. […] The assay was performed in a 96-well Greiner microplate (675093 Dutscher). 25 µL of each concentration of M1 were dispensed into the plate. Then, 50 µL of the PredictorTM hERG membranes and 25 µL of the fluorescent tracer 4 nM were added. The plate was incubated at room temperature for 4 h. The fluorescence polarization measurements were made using a Synergy 2 microplate reader (Biotek Instrument, Colmar, France). Both parallel and perpendicular fluorescence were measured using 530/25 nm excitation and 590/35 nm emission filters with a 570 nm dichroic mirror. The gain was fixed at 110. A known hERG channel blocker (E-4031), provided by the kit, was assayed as positive reference. Both E-4031 and M1 were tested at final concentrations ranging from 0.01 nM to 100 µM. IC50 values were determined graphically by plotting the % inhibition versus the logarithm of 9 M1 concentrations in the assay solution using the GraphPad Prism software (version 6.01, GraphPad Software, La Jolla, CA, USA).

[4] = Cytotoxicity on HepG2 cell line (MTT); type: cell-based; settings: human, HepG2 cells
Procedure: The evaluation of the cytotoxicity of the tested molecules on the HepG2 cell line was performed according to the method of Mosman ([42]) with slight modifications. […] Triplicate assays were performed for each sample. Each well was then examined under a microscope to detect possible precipitate formation before the medium was aspirated from the wells. An amount of 100 μl of MTT solution (0.5 mg/ml in medium without FBS) was then added to each well. […] After this time, the MTT solution was removed and DMSO (100 μl) was added to dissolve the resulting blue formazan crystals. Plates were shaken vigorously (700 rpm) for 10 min. The absorbance was measured at 570 nm with 630 nm as the reference wavelength using a Tecan Infinite F-200 microplate reader. DMSO was used as a blank and doxorubicin as a positive control. Cell viability was calculated as the percentage compared to the control (cells incubated without compound). […] CC50 values represent the mean values calculated from three independent experiments.

T1 sequence (Q12809 whole entry): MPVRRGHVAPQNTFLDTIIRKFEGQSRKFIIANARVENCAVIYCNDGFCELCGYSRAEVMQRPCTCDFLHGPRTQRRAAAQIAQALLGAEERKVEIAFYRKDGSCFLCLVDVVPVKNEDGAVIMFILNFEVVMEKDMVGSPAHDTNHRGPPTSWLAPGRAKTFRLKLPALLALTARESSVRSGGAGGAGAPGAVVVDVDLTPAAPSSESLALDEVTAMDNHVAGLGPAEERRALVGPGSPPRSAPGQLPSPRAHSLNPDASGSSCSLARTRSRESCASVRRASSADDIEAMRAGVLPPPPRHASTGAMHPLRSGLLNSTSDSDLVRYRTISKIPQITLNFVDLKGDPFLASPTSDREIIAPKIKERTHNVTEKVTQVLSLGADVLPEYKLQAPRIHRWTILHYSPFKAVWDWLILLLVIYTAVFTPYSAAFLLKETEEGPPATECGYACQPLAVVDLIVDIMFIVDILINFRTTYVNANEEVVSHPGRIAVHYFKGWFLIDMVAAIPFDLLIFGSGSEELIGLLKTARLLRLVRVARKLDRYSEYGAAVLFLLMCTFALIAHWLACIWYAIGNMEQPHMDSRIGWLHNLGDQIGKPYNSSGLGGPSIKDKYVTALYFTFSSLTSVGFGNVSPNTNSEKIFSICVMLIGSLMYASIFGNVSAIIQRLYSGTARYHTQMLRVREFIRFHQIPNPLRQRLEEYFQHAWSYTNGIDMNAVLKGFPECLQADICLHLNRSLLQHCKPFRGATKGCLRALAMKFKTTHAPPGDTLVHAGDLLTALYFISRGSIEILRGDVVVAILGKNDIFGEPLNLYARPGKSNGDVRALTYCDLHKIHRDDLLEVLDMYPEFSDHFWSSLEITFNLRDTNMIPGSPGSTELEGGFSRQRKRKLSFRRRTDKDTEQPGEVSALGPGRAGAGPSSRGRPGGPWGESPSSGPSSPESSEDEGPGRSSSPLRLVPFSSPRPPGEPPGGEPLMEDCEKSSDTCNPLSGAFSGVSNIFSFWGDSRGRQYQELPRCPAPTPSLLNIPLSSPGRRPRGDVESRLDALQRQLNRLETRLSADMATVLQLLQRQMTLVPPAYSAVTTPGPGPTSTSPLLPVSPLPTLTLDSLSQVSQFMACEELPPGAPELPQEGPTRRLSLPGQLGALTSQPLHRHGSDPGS

For `Cc1ccc(-c2cc3nc(NC(C)(C)C)[nH]c(=O)c3s2)cc1` [Metabolite M1, 2-(tert-Butylamino)-6-(p-tolyl)thieno[3,2-d]pyrimidin-4(3H)-one], which “mean percentage for male exflagellation” value [1] is on record?
Its value is 7.5%.

What about the “concentration from which liver-stage development was fully inhibited” value ([2]; P. cynomolgi in simian hepatocytes) of the same molecule?
The value was 14 µM.

What about the EC50 ([2]; Plasmodium cynomolgi, Hepatocyte, P. cynomolgi in simian primary hepatocytes (SH), mean ± SEM of triplicate experiments, read-out: EC50 against liver-stage parasites) of the same molecule?
The EC50 was 1500 ± 300 nM.

What about the “activity on P. cynomolgi hypnozoites” value ([2]; all tested concentrations (0.1 to 50 μM)) of the same molecule?
Its value is “not active”.

What about the “SI (selectivity index)” value ([2]; hepatocyte CC50/EC50, P. cynomolgi (SH)) of the same molecule?
The value was >40.

What about the “Size reduction at 10 μM (%)” value ([2]; parasite (schizont) size, 10 μM, P. cynomolgi (SH)) of the same molecule?
Its value is 80%.

What about the EC50 [3] of the same molecule?
The EC50 was 283 ± 125 nM.

And the “binding toward the hERG channel” value (hERG channel)?
Its value is “no affinity”.

And the CC50 at 72 h [4]?
Its CC50 at 72 h is 24 µM.
